According to ChEMBL document CHEMBL1152560, “Substituted 2-arylbenzothiazoles as kinase inhibitors: hit-to-lead optimization” (Bioorg Med Chem, 2009):

Columns and labels:
[1] = biological target: Casein kinase I isoform gamma-3 (Homo sapiens) (UniProt Q9Y6M4); assay: Residual activity of CK1gamma3 at 1 uM by microplate scintillation counting
[2] = biological target: Tyrosine-protein kinase CSK (Homo sapiens) (UniProt P41240); assay: Residual activity of CSK at 1 uM by microplate scintillation counting
[3] = biological target: Fibroblast growth factor receptor 4 (Homo sapiens) (UniProt P22455); assay: Residual activity of FGFR4 at 0.1 uM by microplate scintillation counting
[4] = biological target: T1, G protein-coupled receptor kinase 3 (Homo sapiens) (UniProt P35626); assay: Residual activity of GRK3 at 0.1 uM by microplate scintillation counting
T1 sequence (whole entry): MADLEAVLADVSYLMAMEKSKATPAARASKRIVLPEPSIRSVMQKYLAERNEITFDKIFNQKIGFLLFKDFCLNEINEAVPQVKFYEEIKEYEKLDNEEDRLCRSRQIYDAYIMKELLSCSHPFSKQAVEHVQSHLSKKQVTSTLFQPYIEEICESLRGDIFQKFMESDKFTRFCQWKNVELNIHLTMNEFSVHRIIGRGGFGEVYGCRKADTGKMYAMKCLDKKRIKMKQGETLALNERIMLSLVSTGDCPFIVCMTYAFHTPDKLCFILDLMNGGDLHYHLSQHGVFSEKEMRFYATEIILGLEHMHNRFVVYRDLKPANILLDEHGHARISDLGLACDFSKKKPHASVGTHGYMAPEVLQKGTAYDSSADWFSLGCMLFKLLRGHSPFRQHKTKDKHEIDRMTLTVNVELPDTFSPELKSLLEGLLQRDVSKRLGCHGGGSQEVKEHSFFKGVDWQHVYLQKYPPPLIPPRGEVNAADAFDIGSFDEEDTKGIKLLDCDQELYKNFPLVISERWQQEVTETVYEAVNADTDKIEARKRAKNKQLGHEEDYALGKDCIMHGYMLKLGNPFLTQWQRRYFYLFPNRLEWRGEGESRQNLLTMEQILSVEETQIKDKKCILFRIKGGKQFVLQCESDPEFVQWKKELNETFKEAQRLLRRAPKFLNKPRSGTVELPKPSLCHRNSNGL

[5] = biological target: T2, Tyrosine-protein kinase JAK3 (Homo sapiens) (UniProt P52333); assay: Residual activity of JAK3 at 0.1 uM by microplate scintillation counting
T2 sequence (whole entry): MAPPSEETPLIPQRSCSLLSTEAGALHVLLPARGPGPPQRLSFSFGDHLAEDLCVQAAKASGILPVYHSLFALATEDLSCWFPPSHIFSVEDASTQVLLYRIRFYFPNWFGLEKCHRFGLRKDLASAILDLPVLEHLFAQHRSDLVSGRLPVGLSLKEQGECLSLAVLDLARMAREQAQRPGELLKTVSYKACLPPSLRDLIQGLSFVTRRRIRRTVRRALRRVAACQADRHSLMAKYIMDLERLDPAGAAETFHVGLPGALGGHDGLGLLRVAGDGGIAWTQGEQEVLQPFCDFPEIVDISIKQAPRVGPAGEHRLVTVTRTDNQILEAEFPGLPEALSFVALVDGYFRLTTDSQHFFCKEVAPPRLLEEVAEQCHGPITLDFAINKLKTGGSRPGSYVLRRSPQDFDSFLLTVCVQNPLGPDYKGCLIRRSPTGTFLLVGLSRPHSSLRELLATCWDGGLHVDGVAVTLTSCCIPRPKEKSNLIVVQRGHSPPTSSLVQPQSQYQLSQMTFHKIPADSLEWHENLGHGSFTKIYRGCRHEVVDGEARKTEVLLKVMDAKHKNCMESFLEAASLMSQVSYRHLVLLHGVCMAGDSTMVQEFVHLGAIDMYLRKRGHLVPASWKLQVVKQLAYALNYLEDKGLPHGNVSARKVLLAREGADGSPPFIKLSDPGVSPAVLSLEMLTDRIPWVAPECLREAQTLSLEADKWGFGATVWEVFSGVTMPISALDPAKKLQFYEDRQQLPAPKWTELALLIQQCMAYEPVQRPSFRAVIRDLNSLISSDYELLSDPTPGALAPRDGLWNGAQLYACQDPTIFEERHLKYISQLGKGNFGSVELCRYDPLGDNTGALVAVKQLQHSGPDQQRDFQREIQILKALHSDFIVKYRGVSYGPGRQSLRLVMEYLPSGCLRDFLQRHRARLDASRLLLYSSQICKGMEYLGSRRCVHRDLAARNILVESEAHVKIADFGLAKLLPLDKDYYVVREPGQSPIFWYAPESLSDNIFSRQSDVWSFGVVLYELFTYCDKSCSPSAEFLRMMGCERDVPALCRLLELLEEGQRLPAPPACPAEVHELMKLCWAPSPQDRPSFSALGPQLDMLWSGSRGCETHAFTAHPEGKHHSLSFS

[6] = biological target: Tyrosine-protein kinase HCK (Homo sapiens) (UniProt P08631); assay: Residual activity of HCK at 10 uM by microplate scintillation counting
[7] = biological target: Mitogen-activated protein kinase 9 (Homo sapiens) (UniProt P45984); assay: Residual activity of JNK2 at 10 uM by microplate scintillation counting
[8] = biological target: RAC-beta serine/threonine-protein kinase (Homo sapiens) (UniProt P31751); assay: Residual activity of AKT2 at 0.1 uM by microplate scintillation counting
[9] = biological target: ALK tyrosine kinase receptor (Homo sapiens) (UniProt Q9UM73); assay: Residual activity of ALK at 0.1 uM by microplate scintillation counting
[10] = biological target: Calcium/calmodulin-dependent protein kinase type 1D (Homo sapiens) (UniProt Q8IU85); assay: Residual activity of CAMK1D at 0.1 uM by microplate scintillation counting
[11] = biological target: Calcium/calmodulin-dependent protein kinase type II subunit beta (Homo sapiens) (UniProt Q13554); assay: Residual activity of CAMK2B at 0.1 uM by microplate scintillation counting
[12] = biological target: Cyclin-dependent kinase 2/cyclin A (Homo sapiens) (UniProt P24941+P20248+P78396); assay: Residual activity of CDK2/Cyclin A at 0.1 uM by microplate scintillation counting; type: protein-complex assay
[13] = biological target: Protein kinase C beta type (Homo sapiens) (UniProt P05771); assay: Residual activity of PKCbeta2 at 0.1 uM by microplate scintillation counting
[14] = biological target: Serine/threonine-protein kinase N2 (Homo sapiens) (UniProt Q16513); assay: Residual activity of PRK2 at 10 uM by microplate scintillation counting
[15] = biological target: Serine/threonine-protein kinase PLK3 (Homo sapiens) (UniProt Q9H4B4); assay: Residual activity of PLK3 at 0.1 uM by microplate scintillation counting
[16] = biological target: SRSF protein kinase 3 (Homo sapiens) (UniProt Q9UPE1); assay: Residual activity of STK23 at 0.1 uM by microplate scintillation counting
[17] = biological target: Serine/threonine-protein kinase 16 (Homo sapiens) (UniProt O75716); assay: Residual activity of TSF1 at 0.1 uM by microplate scintillation counting
[18] = biological target: Vascular endothelial growth factor receptor 2 (Homo sapiens, UniProt P35968); assay: Residual activity of VEGFR2 at 0.1 uM by microplate scintillation counting
Sequence of Vascular endothelial growth factor receptor 2 (P35968 whole entry): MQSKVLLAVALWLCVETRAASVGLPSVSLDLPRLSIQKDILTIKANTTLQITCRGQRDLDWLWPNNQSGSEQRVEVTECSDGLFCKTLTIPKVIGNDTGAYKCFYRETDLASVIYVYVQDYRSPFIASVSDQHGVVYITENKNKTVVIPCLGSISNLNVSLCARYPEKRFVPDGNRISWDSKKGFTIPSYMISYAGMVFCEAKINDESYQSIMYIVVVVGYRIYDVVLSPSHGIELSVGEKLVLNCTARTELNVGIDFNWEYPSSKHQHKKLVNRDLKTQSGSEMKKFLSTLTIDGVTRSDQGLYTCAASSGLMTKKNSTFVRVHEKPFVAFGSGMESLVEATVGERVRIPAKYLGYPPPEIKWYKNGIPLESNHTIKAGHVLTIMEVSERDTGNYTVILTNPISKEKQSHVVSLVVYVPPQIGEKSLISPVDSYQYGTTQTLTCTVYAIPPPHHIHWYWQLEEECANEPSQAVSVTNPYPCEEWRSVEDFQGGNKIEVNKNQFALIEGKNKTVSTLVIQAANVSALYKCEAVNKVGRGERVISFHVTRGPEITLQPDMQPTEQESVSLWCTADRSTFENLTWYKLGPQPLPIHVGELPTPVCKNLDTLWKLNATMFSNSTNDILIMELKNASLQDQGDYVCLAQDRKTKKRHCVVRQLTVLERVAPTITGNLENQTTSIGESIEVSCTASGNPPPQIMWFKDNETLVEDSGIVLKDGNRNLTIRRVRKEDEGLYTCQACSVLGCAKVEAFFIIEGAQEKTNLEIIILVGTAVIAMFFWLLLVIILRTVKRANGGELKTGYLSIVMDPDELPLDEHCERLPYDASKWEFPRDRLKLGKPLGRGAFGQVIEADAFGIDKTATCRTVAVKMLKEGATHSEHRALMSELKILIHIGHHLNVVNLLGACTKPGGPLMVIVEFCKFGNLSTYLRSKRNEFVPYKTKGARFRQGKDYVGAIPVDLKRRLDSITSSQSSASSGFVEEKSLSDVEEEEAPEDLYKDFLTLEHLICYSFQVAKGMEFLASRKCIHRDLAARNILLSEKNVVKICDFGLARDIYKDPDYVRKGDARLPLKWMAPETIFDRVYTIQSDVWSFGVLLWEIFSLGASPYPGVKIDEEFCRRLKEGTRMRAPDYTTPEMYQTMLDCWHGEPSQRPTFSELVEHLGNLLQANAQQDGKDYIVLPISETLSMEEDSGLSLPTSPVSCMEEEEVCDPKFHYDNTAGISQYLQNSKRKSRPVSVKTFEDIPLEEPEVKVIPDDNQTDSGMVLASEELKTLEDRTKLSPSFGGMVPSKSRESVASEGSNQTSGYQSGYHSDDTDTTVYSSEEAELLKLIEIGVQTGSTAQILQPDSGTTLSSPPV

Sequence of SRSF protein kinase 3 (Homo sapiens) (Q9UPE1 whole entry): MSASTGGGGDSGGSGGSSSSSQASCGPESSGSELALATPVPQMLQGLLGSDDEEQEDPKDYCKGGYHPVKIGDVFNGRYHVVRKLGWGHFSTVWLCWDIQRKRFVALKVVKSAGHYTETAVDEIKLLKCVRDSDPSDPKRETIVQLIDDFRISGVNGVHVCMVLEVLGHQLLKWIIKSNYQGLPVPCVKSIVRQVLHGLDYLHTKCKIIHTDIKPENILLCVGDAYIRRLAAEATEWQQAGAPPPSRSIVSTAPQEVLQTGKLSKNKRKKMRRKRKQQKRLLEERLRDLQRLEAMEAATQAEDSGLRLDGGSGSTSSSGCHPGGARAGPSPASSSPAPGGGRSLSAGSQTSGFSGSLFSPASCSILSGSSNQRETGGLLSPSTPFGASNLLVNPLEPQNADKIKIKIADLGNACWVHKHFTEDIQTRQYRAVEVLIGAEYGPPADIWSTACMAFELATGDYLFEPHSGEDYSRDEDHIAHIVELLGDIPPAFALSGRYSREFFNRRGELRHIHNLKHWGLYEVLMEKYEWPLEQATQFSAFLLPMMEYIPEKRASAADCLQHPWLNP
Sequence of Serine/threonine-protein kinase N2 (Homo sapiens) (Q16513 whole entry, looked up): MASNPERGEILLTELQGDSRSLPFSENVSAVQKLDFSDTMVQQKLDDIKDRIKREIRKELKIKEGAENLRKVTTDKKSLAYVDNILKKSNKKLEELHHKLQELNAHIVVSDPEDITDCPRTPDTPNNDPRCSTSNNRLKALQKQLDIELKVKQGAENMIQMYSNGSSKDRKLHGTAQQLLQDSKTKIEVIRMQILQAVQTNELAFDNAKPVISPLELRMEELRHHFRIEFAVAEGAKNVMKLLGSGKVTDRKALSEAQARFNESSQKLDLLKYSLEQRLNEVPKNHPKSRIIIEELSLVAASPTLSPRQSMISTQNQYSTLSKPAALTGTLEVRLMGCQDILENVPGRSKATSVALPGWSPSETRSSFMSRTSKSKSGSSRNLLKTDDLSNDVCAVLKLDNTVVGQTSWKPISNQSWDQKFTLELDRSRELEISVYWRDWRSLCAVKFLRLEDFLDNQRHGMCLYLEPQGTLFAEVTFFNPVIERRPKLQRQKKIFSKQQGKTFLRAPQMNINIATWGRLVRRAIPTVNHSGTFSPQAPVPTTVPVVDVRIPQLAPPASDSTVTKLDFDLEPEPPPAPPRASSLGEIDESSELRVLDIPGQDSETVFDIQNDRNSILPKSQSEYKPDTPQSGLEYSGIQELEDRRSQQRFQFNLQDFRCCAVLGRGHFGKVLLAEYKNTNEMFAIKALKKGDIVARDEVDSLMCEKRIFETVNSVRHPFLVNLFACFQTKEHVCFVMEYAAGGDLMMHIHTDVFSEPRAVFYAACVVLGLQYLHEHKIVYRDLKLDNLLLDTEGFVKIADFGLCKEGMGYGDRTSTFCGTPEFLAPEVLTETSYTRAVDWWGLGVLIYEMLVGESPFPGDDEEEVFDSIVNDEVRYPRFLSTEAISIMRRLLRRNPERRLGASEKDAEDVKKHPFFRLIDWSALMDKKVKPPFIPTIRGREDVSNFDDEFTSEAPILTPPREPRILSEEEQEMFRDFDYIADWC
Sequence of Serine/threonine-protein kinase 16 (Homo sapiens) (O75716 whole entry): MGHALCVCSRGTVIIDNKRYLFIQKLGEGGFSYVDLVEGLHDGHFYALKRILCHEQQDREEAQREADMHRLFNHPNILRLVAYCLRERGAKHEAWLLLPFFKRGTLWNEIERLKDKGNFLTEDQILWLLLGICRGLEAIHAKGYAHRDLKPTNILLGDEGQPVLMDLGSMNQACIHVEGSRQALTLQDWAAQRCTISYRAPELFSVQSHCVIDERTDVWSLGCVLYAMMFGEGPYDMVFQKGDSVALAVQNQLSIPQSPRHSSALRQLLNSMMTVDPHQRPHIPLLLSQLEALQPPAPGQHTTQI
Sequence of Calcium/calmodulin-dependent protein kinase type II subunit beta (Homo sapiens) (Q13554 whole entry): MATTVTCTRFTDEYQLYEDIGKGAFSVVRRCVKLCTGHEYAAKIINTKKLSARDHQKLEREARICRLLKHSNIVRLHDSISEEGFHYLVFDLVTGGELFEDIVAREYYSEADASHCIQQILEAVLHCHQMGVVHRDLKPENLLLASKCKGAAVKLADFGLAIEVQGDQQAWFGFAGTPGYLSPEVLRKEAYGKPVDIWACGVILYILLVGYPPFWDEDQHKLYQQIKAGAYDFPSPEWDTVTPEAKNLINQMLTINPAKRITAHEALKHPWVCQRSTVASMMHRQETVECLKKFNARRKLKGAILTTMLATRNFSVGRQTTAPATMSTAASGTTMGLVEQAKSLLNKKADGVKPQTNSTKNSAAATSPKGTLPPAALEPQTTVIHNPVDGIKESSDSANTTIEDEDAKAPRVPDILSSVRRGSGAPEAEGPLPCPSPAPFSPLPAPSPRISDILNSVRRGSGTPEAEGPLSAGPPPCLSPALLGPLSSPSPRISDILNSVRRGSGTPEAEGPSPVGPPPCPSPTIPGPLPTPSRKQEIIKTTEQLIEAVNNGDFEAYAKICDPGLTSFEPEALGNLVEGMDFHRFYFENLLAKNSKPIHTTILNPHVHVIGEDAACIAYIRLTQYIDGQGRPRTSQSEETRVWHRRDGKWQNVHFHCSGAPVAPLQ
Sequence of Protein kinase C beta type (Homo sapiens) (P05771 2-671 limits assumed): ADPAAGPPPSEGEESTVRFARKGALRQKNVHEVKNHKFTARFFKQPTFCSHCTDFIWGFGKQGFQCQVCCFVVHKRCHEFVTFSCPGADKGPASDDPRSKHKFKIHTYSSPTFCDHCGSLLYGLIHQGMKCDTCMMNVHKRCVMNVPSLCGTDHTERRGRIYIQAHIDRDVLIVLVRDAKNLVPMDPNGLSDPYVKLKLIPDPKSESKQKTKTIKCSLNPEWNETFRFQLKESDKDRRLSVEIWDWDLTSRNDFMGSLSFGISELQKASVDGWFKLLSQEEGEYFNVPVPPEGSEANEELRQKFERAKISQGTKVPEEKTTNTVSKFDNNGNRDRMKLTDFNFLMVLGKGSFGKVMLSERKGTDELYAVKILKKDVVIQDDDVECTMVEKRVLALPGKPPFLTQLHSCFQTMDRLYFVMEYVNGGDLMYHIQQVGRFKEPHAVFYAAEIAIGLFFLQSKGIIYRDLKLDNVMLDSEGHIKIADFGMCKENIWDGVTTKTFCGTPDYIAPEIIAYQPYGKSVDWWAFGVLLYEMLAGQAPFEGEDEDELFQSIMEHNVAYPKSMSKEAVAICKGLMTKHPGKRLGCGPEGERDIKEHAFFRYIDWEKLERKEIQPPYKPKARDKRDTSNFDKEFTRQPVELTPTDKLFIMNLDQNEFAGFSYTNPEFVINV
Sequence of Tyrosine-protein kinase CSK (Homo sapiens) (P41240 2-450 limits assumed): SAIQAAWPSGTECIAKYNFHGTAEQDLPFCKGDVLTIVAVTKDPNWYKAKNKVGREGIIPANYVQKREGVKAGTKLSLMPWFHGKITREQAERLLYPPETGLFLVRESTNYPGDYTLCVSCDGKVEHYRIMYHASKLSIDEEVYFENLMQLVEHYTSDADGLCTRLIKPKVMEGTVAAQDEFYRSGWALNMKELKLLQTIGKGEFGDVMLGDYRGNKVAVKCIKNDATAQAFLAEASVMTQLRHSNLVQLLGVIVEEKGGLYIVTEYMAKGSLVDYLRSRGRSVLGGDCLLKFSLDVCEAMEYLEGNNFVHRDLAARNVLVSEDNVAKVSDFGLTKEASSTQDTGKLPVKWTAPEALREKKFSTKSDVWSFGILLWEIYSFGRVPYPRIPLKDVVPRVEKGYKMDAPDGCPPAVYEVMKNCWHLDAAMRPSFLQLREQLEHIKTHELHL

SMILES	residual activity [1] [%]	residual activity [2] [%]	residual activity [3] [%]	residual activity [4] [%]	residual activity [5] [%]	residual activity [6] [%]	residual activity [7] [%]	residual activity [8] [%]	residual activity [9] [%]	residual activity [10] [%]	residual activity [11] [%]	residual activity [12] [%]	residual activity [13] [%]	residual activity [14] [%]	residual activity [15] [%]	residual activity [16] [%]	residual activity [17] [%]	residual activity [18] [%]
COc1cc2c(Oc3ccc(-c4nc5ccccc5s4)cc3)ncnc2cc1OCCCN1CCN(C)CC1	83	82	104	94	95	155	96	97	106	88	100	94	101	95	88	88	100	65
COc1cc2c(Oc3ccc(-c4nc5ccccc5s4)cc3F)ncnc2cc1OCCCN1CCN(C)CC1	92	76	109	95	90	78	122	108	114	104	65	100	87	75	87	88	102	73
COc1cc2c(Oc3ccc(-c4nc5ccccc5s4)cc3)ncnc2cc1OCCCN1CCCC1	88	97	100	86	98	187	93	102	102	101	73	96	99	85	87	80	93	73
